In US11458153B2, “Drug delivery composition comprising a self-assembled gelator” (The Brigham and Women's Hospital, Inc., priority 2008, dated 2022):
Entries after “also recorded” stand apart in the source; their conditions may differ.

What was measured:
[1] = Gelation studies with Apn-based prodrug gelators in water and organic solvents; format: physicochemical; parameters: key to Gelation ability: G = gel; P = precipitate; S = soluble; I = insoluble; settings: for gelation in water (in words): water / aqueous solutions
Source text: Gelation Studies with Prodrug-Based Gelators. Gelation abilities of Apn based amphiphilic prodrugs have been investigated thoroughly in a wide range of solvents. For detailed gelation results, see Table 1, below). Typically, the required amount of gelator was placed in a glass vial and with an appropriate solvent. […] The resulting solution was slowly cooled to room temperature and gelation was visually observed. […] Despite of prolonged heating Apn-11-CH3 was not soluble in water. […] In addition, Apn-7-COOH is soluble in basic solutions (pH is more than 8).
All gels were opaque in nature and stable for several weeks.
Preparation of Gels. Typically, gelator (0.1-5 mg) and required solvent (0.1-1 mL) were placed into a 2 mL scintillation vial, which was then sealed with a screw cap. The vial was heated with shaking until the solid was completely dissolved.

[2] = test system: mesenchymal stem cells (MSCs); assay: MSC viability, trypan blue exclusion; format: cell-based, human; settings: 250 μM, 48 hours incubation
Protocol: Cytocompatibility. The cytocompatibility of prodrugs generated from small modification of known drugs was investigated. […] To test the cyto compatibility of prodrug-based amphiphiles and bolaamphiphiles, and their effect on cell characteristics such as viability, proliferation, adhesion and cell phenotype, a series of experiments was performed with mesenchymal stem cells (MSCs). To gain more insight into the effect of modification, unmodified drug Apn was used as a control. The viability of control cells and cells treated with Apn, Apn-7-COOH and Apn-8-Apn was examined with trypan blue assay. Use of Mesenchymal stem cells is appropriate given that these systems may be used for localized release likely into connective tissues.
Mesenchymal Stem Cell Culture. Primary human mesenchymal stem cells were maintained in expansion media that consisted of 15% Fetal Bovine Serum (selected for its ability to expand MSCs), 1% (v/v) L-Glutamine, 1% (v/v) Penn-Strep, and α-MEM. All experiments were performed using MSCs at passage number 4-6.
Viability, Adhesion and Proliferation Characteristics. The viability of the cells was examined using trypan blue exclusion. […] The media was then aspirated and the cells were detached with 200 μL of cell dissociated solution (similar quantities of floating cells were observed between the groups, typically 5-10 per well). 300 μL of media was added and the total 500 μL of the cell dispersion was collected in an eppendorf tubes. From this 10 μL of cell dispersion was diluted to 1:1 with 4% trypan blue solution and cells were counted in a hemocytometer to determine the number viable (non-blue) and nonviable (blue) cells. A control for this experiment included cells treated with only phosphate buffer saline (PBS) without an amphiphile. Cell adhesion was quantified by measuring the number of adherent cells on tissue culture surfaces in 96 well plates after incubating with amphiphiles for 12 hours. For proliferation studies, 5000 cells were added to each well of a 96 well plate in 200 μL of MSC cell expansion media, and appropriate amphiphiles were then added and incubated at 37° C. and 5% CO2. Proliferation was quantified by manually tabulating the number of cells within the flask at multiple time points (1, 2, 3, 4, 6 and 8 days) with light microscopy at 10×.

[3] = test system: mesenchymal stem cells (MSCs); assay: MSC adipogenic differentiation, Oil Red O staining; format: cell-based, human; settings: 250 μM, 23 days of induction
Protocol: (§1) Unlike typical fibroblast cell lines used for toxicity screening, cultured mesenchymal stem cells are highly sensitive to the presence of soluble factors and can often loose their capacity for multi-lineage differentiation or differentiate into non-desired lineages depending on the culture conditions. To examine the impact of the acetaminophen amphiphilic prodrugs on multi-lineage differentiation of MSCs, cells were treated with adipogenic and osteogenic induction media in presence of amphiphiles followed by respective colorimetric histological staining.
Adipogenic Differentiation. MSCs were seeded in the wells of 24 well plates, and were culture in MSC expansion media until they reach 90% confluence (note: in control samples there was no amphiphile present, whereas in experimental samples 250 μM of Apn-based amphiphile was present). Adipogenic differentiation was induced by culturing the cells for 23 days in adipogenic induction media (from Lonza—MSCs Adipogenic Single Quote kit containing h-Insulin (recombinant), L-Glutamine, Dexamethasone, Indomethacin, IBMX (3-isobuty-1-methyl-xanthine), Pen/Strep) and adipogenic maintenance media (from Lonza—MSCs Adipogenic Single Quote kit containing h-Insulin (recombinant), L-Glutamine, Pen/Strep). […] Adipogenesis was evaluated by Oil Red O staining. Following aspiration of the media, cells were washed once with PBS, and fixed in PBS with 3.7% formaldehyde for 30 min at room temperature. Following fixation cells were rinsed with distilled water for a few minutes, and incubated with isopropanol containing an Oil Red O working solution (prepared by diluting 30 mL of 0.5% isopropanol/Oil Red O solution with 20 mL of distilled water). After 45 minutes culture well were rinsed twice with distilled water and 1 mL of hematoxylin was added to each well for 1 minute followed by aspiration and washing with distilled water. The wells were viewed using an inverted phase contrast microscope.

[4] = test system: mesenchymal stem cells (MSCs); assay: MSC osteogenic differentiation, alkaline phosphatase staining; format: cell-based, human; settings: 250 μM, 23 days
Protocol: as §1
Osteogenic Differentiation. MSCs were seeded in the wells of 24 well plates, and were culture in MSC expansion media until they reach 90% confluence (note: in control samples there was no amphiphile present, whereas in experimental samples 250 μM of Apn-based amphiphile was present). Osteogenic differentiation was induced by culturing the cells for 23 days in osteogenic induction media (from Lonza—MSCs Osteogenic Single Quote kit) containing dexamethasone, β-glycerophosphate, L-ascorbic acid-2-phosphate, and α-MEM. The media in both groups was changed every 3 days (note: each time while changing the media, 250 μM of Apn-based amphiphiles were added to maintain constant concentration). Osteogenesis was evaluated by cell membrane associated alkaline phosphatase activity. Alkaline phosphatase activity was examined after 23 days by carefully aspirating the media and washing the cells with PBS. The cells were fixed with 3.7% formaldehyde solution for 15 min at room temperature followed by rinsing with distilled water. 0.06% Red Violet LB salt solution in Tris HCl was added with distilled water containing DMF and Naphthol AS MX-PO4. The plates were incubated for 45 minutes at room temperature and then the wells were rinsed 3 times with distilled water and imaged under with inverted phase contrast microscope.

[5] = biological target: T1, lipase (Lipolase 100L, Type EX) (Thermomyces lanuginosus, UniProt O59952); assay: Enzyme-triggered hydrogel degradation and drug release; format: in vitro ADME; settings: curcumin-encapsulated hydrogel, lipase, 37° C., several days
T1 construct: purchased Novozymes through Brenntag North America Lipolase 100L, Type EX
T1 sequence (O59952 23-291): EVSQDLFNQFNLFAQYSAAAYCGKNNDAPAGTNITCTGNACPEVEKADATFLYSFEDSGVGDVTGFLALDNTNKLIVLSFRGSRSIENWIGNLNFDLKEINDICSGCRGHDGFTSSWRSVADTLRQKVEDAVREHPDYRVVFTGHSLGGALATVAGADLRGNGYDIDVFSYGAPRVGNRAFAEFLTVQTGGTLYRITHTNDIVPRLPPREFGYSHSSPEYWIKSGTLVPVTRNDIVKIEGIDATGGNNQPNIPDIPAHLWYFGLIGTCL
Protocol: Encapsulation and release of curcumin was previously studied by the Ultra-Violet absorbance spectroscopy (λmax at 424 nm). Absorbance spectrum of modified Apn-7-COOH was similar to that of Apn (FIG. 6B). In this instance, enzyme-triggered single and multiple drug delivery has been carried out using two sets of hydrogel samples, i.e., hydrogels of Apn-7-COOH and Apn-8-Apn with and without curcumin. In the first set, lipase (Lipolase 100L, Type EX, lipase units 100 KLU/g) was added to the preformed hydrogel of Apn-7-COOH (2 wt %) and kept it at 37° C. which is lower than gel melting temperature. It was anticipated that lipase (esterase) would hydrolyze the ester bond of prodrug-based gelator (Apn-7-COOH) to release acetaminophen and dicarboxylic acid as the hydrogel degrades. As expected, after 48 hours the gel completely degraded and became a clear solution.
To test this further, and examine multiple (two) drugs delivery (FIGS. 6A-6E), curcumin was encapsulated in the hydrogel of Apn-7-COOH (2 wt %) and to that lipase was added and kept it at 37° C. Absorbance spectra were recorded on aliquots which were collected (after the addition of enzyme to the hydrogel) at regular intervals (FIG. 6C). […] The concentration of the enzyme used in these in vitro experiments is higher than physiological concentration of esterases (for example, physiological concentration of cholesterol esterase is 7 U/ml).
Increasing either concentration of enzyme or incubation temperature to 45° C. doubles the drug release rate, which was correlating with previous findings.
To analyze the gel degradation mechanism, another prodrug Apn-5-ether-COOH was synthesized (FIG. 2), where hydrocarbon chain (which is bearing terminal carboxylic acid) was connected to the acetaminophen through an ether bond (C—O—C) to prevent the esterolytic cleavage by lipase.

[6] = cited from earlier work
[7] = Gelation ability of polyol amphiphiles in water and organic solvents; format: physicochemical; parameters: key: G = stable gel at room temperature; P = precipitate; Sol = soluble
Source text: Examples of suitable solvents include water, salt water (such as a NaCl solution), different […] such as TRISZMA buffers, and alkaline and acidic solutions. In addition to water-based solutions, the compounds can gel various aromatic and non-aromatic organic solvents, such as benzene, toluene, hexane, and acetonitrile. All the gels obtained in Table 7 were thermally reversible. Above their gelation temperature, the gels dissolved in solvent, but could be returned to their original gel state upon cooling.

Compound | solubility in water (in words) [1] | gelation in water (in words) [1] | Gelation ability ([1]; solvent chloroform) | Gelation ability ([1]; solvent ethanol) | Gelation ability ([1]; solvent ethyl acetate) | Gelation ability ([1]; solvent isopropanol) | Gelation ability ([1]; solvent methanol) | Gelation ability ([1]; solvent t-butanol) | Gelation ability ([1]; solvent water) | minimum gelation concentration ([1]; solvent water) [wt/v %] | also measured
CC(=O)Nc1ccc(O)cc1 [Apn, N-(4-hydroxyphenyl)acetamide, reference compound] | water soluble | – | – | – | – | – | – | – | – | – | viable cells [2]: 91%; adipogenic differentiation, Oil Red O (ORO) staining [3]: robust capacity; also recorded: positive staining; osteogenic differentiation, alkaline phosphatase (ALP) staining [4]: robust capacity; also recorded: positive staining
CC(=O)Nc1ccc(OCCCCCC(=O)O)cc1 [Apn-5-ether-COOH] | – | gelation behavior akin to Apn-7-COOH | – | – | – | – | – | – | – | – | state of hydrogel after incubation with lipase [5]: still intact; curcumin release into the solution ([5]; absorption spectroscopy): prevented curcumin release
CC(=O)Nc1ccc(OC(=O)CCCCCCC(=O)Oc2ccc(NC(C)=O)cc2)cc1 [Apn-8-Apn] | – | formed stable hydrogels | S | S | I | S | S | S | G | 1.1 | viable cells [2]: 82%; adipogenic differentiation, Oil Red O (ORO) staining [3]: robust capacity; also recorded: equally stained for ORO; osteogenic differentiation, alkaline phosphatase (ALP) staining [4]: robust capacity; also recorded: equally stained for ALP
CCCCCCCCCCCC(=O)Oc1ccc(NC(C)=O)cc1 [Apn-11-CH3] | not soluble | did not gelate | S | G | P | G | S | G | I | – | minimum gelation concentration ([1]; solvent ethanol): 1.5 wt/v %; minimum gelation concentration ([1]; solvent isopropanol): 0.8 wt/v %; minimum gelation concentration ([1]; solvent t-butanol): 0.6 wt/v %
CC(=O)Nc1ccc(OC(=O)CCCCCCCCCCCCC(=O)O)cc1 [Apn-13-COOH] | sparingly soluble | – | S | S | I | S | S | S | G | 0.6 | –
CC(=O)Nc1ccc(OC(=O)CCCCCCCCCCCCC(=O)Oc2ccc(NC(C)=O)cc2)cc1 [Apn-14-Apn] | insoluble | – | S | S | I | S | S | S | G | 0.9 | –
COc1cc(C=CC(=O)CC(=O)C=Cc2ccc(O)c(OC)c2)ccc1O [curcumin, 1,7-bis(4-hydroxy-3methoxyphenyl)-1,6-heptadiene-3,5-dione] | – | – | – | – | – | – | – | – | – | – | solubility of curcumin in water [6]: 0.03 µM
CCCCCCCCCCCCCCCC(=O)NC(CO)(CO)CO [polyol-16] | – | – | – | – | – | – | – | – | – | – | Gelation ability ([7]; solvent 1,4-dioxane): Sol; Gelation ability ([7]; solvent CCl4): G; Gelation ability ([7]; solvent CH3CN): G; Gelation ability ([7]; solvent CHCl3): Sol; Gelation ability ([7]; solvent DMSO): Sol; Gelation ability ([7]; solvent NaCl (40 mM)): G; Gelation ability ([7]; solvent TRIS (50 mM)): G; Gelation ability ([7]; solvent acetone): Sol; Gelation ability ([7]; solvent acidic (pH < 3)): G; Gelation ability ([7]; solvent basic (pH > 12)): G; Gelation ability ([7]; solvent benzene): G; Gelation ability ([7]; solvent cyclohexane): G; Gelation ability ([7]; solvent toluene): G; Gelation ability ([7]; solvent water): G
